Reference: patent US8367873B2, “Phenyl-substituted bicyclooctane-1,3-dione derivatives” (Bayer Cropscience AG, priority 2008, dated 2013)
Several values for one entry are separate records, joined by “and”; a condition that tells them apart may be missing. Equal values may be shown once.

Experiments:
[1] = tested on: Echinocloa crus-galli; assay: Herbicidal pre-emergence action; format: in vivo; details: pre-emergence method, 80 g/ha, greenhouse, visual assessment vs untreated controls
Procedure, shortened: (§1)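 Seeds sown in sandy loam and covered; WP-formulated compounds applied to the soil surface as aqueous suspension at 600 l/ha with 0.2% wetting agent, at varying rates. Greenhouse-grown; emergence damage scored visually after three weeks versus untreated controls (100% = plants dead, 0% = like control).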

[2] = tested on: Setaria viridis; assay: Herbicidal pre-emergence action; format: in vivo; details: pre-emergence method, 80 g/ha, greenhouse, visual assessment vs untreated controls
Procedure, shortened: as §1

[3] = tested on: Lolium multiflorum; assay: Herbicidal pre-emergence action; format: in vivo; details: pre-emergence method, 80 g/ha, greenhouse, visual assessment vs untreated controls
Procedure, shortened: as §1

[4] = tested on: Alopecurus myosuroides; assay: Herbicidal pre-emergence action; format: in vivo; details: pre-emergence method, 80 g/ha, greenhouse, visual assessment vs untreated controls
Procedure, shortened: as §1

[5] = tested on: Echinocloa crus-galli; assay: Herbicidal post-emergence action; format: in vivo; details: post-emergence method; for herbicidal effect against ECHCG (Echinochloa crus-galli): 80 g/ha
Procedure, shortened: (§2)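 Greenhouse-grown weeds were treated post-emergence at the one-leaf stage, two to three weeks after sowing in sandy loam. Compounds formulated as WP were sprayed at various rates in 600 l/ha water with 0.2% wetting agent. Damage was scored visually after about three weeks versus untreated controls (0% = like control, 100% = dead).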

[6] = tested on: Setaria viridis; assay: Herbicidal post-emergence action; format: in vivo; details: post-emergence method, 80 g/ha
Procedure, shortened: as §2

[7] = tested on: Lolium multiflorum; assay: Herbicidal post-emergence action; format: in vivo; details: post-emergence method; for herbicidal effect against LOLMU (Lolium multiflorum): 80 g/ha
Procedure, shortened: as §2

[8] = tested on: Alopecurus myosuroides; assay: Herbicidal post-emergence action; format: in vivo; details: post-emergence method; for herbicidal effect against ALOMY (Alopecurus myosuroides): 80 g/ha
Procedure, shortened: as §2

[9] = tested on: cereals; assay: Container trials with cereals in the greenhouse, use of safeners (Mefenpyr 1 day prior to herbicide application); format: in vivo
Description: Seeds of monocotylidonous and dicotylidonous weed and crop plants are placed in sandy loam in wood fibre pots, covered with soil and cultivated in a greenhouse under good growth conditions. Two to three weeks after sowing, the test plants are treated at the one-leaf stage. The test compounds, formulated as wettable powders (WP), are then with a water application rate of 600 l/ha (converted), with 0.2% of wetting agent added, sprayed onto the green parts of the plants in different amounts. After the test plants have been kept in the greenhouse under optimum growth conditions for about three weeks, the effect of the preparations is assessed visually in comparison to untreated controls (herbicidal effect in percent: 100% effect=the plants have died, 0% effect=like control plants).
If it is to be additionally tested as to whether safeners can improve the plant compatibility of test substances in the case of crop plants, the following options are used for applying the safeners: • Seeds of the crop plants are, before sowing, dressed with safener substance (the amount of safener stated in percent, based on the weight of the seed) • Before the application of the test substances, the crop plants are sprayed with the safener at a certain application rate per hectare (usually one day before the application of the test substances) • The safener is applied together with the test substance as a tank mix (the amount of safener stated in g/ha or as a ratio, based on the herbicide).
Container Trials with Cereals in the Greenhouse

[10] = tested on: maize; assay: Crop compatibility small plot trial outdoors with maize, post-emergence, with and without safener; format: in vivo; details: 60 g ai/ha (with safener 60 + 60)
Description: Method crop compatibility small plot trial outdoors: • Customary sowing using a single seed seeder • Plot size: 11.25 m^2/two repetitions
Treatment was carried out using a plot sprayer. The safener was applied together with the test substance as a tank mix using 300 l of water/ha (amounts of herbicide and safener are stated in g of ai/ha). Post-emergence application was carried out at the five-leaf stage of maize. Crop compatibility was assessed visually 14 and 27 days after the treatment (in percent compared to an untreated control), 100% damage=the plants have died, 0% damage=like control plants). • Outside trial with maize (Magixx Duo is cycloxidim-tolerant) • Post-Emergence Method

[11] = tested on: monocotylidonous and dicotylidonous weed and crop plants; assay: Herbicidal post-emergence action (other test plants); format: in vivo; details: post-emergence method; for herbicidal effect against AVEFA (Avena fatua): 80 g/ha
Procedure, shortened: as §2

[12] = tested on: monocotylidonous and dicotylidonous weed and crop plants; assay: Herbicidal pre-emergence action (other test plants); format: in vivo; details: pre-emergence method, 80 g/ha, greenhouse, visual assessment vs untreated controls
Procedure, shortened: as §1

[13] = Penetration of active compounds through enzymatically isolated cuticles of apple tree leaves; format: in vitro ADME, apple trees of the cultivar Golden Delicious; details: 20° C., 60% rh
Description: Increase of penetration into the plant by ammonium or phosphonium salts and synergistic increase of penetration into the plant by ammonium/phosphonium salts in combination with penetrants.
In this test, the penetration of active compounds through enzymatically isolated cuticles of apple tree leaves was measured.
Use was made of leaves which, fully developed, were cut from apple trees of the cultivar Golden Delicious. The cuticles were isolated by • initially filling leaf discs punched out and stained with dye on the underside by vacuum infiltration with a pectinase solution (0.2 to 2% strength) buffered to a pH between 3 and 4, • […] allowing the leaf discs treated in this manner to stand until the original leaf structure has dissolved and the non-cellular cuticles have detached.
Only the cuticles, free from hairs and stoma, of the upper sides of the leaves were then used. They were washed repeatedly alternating with water and a buffer solution of pH 7. The clean cuticles obtained were then mounted on Teflon plates and smoothed and dried with a gentle stream of air.
In the next step, the cuticle membranes obtained in this manner were placed into stainless steel diffusion cells (=transport chambers) for membrane transport studies. To this end, the cuticles were placed with a pincet into the centre of the edges, coated with silicone fat, of the diffusion cells and closed with a ring, which had also been treated with fat. The arrangement was chosen such that the morphological outside of the cuticles was facing outwards, i.e. exposed to air, whereas the original inside was facing the interior of the diffusion cells.
The diffusion cells were filled with a 30% strength ethylene glycol/water solution. To determine the penetration, in each case 10 μl of the spray liquor of the composition below were applied to the outside of the cuticles. The spray liquor was prepared using local tap water of medium hardness.
After the spray liquors had been applied, the water was allowed to evaporate and the chambers were inverted and placed into thermostatic […] in which temperature and atmospheric humidity over the cuticles could be adjusted using a gentle stream of air onto the cuticles with the spray coating (20° C., 60% rh). At regular intervals, an autosampler took aliquots and the active compound content was determined by HPLC.
The stated numbers are average values of eight to ten measurements.

[14] = 10 days after application, 25 g of a.i./ha
[15] = 10 days after application, 50 g of a.i./ha
[16] = 10 days after application, 100 g of a.i./ha
[17] = 10 days after application, 12.5 g of a.i./ha
[18] = 28 days after application, 50 g of a.i./ha
[19] = 28 days after application, 100 g of a.i./ha
[20] = 28 days after application, 12.5 g of a.i./ha
[21] = 28 days after application, 25 g of a.i./ha

SMILES | herbicidal effect ECHCG [1] [%] | herbicidal effect SETVI [2] [%] | herbicidal effect LOLMU [3] [%] | herbicidal effect ALOMY [4] [%] | herbicidal effect against ECHCG (Echinochloa crus-galli) [5] [%] | herbicidal effect against SETVI (Setaria viridis) [6] [%] | herbicidal effect against LOLMU (Lolium multiflorum) [7] [%] | herbicidal effect against ALOMY (Alopecurus myosuroides) [8] [%] | Summer wheat observed (%) [9, 17] [%] | Summer wheat observed (%) [9, 14] | Summer wheat observed (%) [9, 15] | herbicidal effect against AVEFA (Avena fatua) [11] [%] | herbicidal effect AVEFA [12] [%] | Summer barley observed (%) [9, 18] [%] | Summer barley observed (%) [9, 19] [%] | Summer wheat observed (%) [9, 20] [%] | Summer wheat observed (%) [9, 21] [%] | Summer wheat observed (%) [9, 18] [%] | Summer wheat observed (%) [9, 19] [%] | further results
CCc1cc(C)cc(CC)c1C1=C(O)[C@H]2CC3(C[C@H]2C1=O)OCCO3 (relative stereo) [I-a-8] | 90 | 90 | 100 | 100 | 100 | 100 | 100 | 100 | 20 | 40% and 20% | 50% and 30% | 100 | 60 | – | – | – | – | – | – | Summer barley observed (%) [9, 14]: 10%; Summer barley observed (%) [9, 15]: 20%; Summer barley observed (%) [9, 16]: 20%; Summer wheat observed (%) [9, 16]: 60% and 30%; % damage ([10]; maize cultivar Magixx Duo (cycloxidim-tolerant), 14 days after application): 0%; % damage ([10]; maize cultivar Magixx Duo (cycloxidim-tolerant), 27 days after application): 0%; % damage ([10]; maize cultivar Oldham, 14 days after application): 94%; % damage ([10]; maize cultivar Oldham, 27 days after application): 93%
CCc1cc(C)cc(CC)c1C1=C(O)[C@H]2CC3(C[C@H]2C1=O)OCC(C)CO3 (relative stereo) [I-a-25] | 90 | 90 | 100 | 100 | 100 | 100 | 100 | 100 | – | – | – | 100 | 70 | 60 | 85 | 10 | 30 | 70 | 85 | –
CCOC(=O)OC1=C(c2c(CC)cc(C)cc2CC)C(=O)[C@@H]2CC3(C[C@H]12)OCCCO3 (relative stereo) [I-c-14] | 90 | 70 | 100 | 90 | 100 | 100 | 100 | 90 | – | – | – | 70 | 70 | 10 | 20 | 40 | 50 | 60 | 70 | –
CCc1cc(C)cc(CC)c1C1=C(O)[C@H]2CC3(C[C@H]2C1=O)OCC=CCO3 (relative stereo) [I-a-14] | 100 | 90 | 100 | 100 | 100 | 100 | 100 | 90 | 50 | 60% | 60% | 90 | 80 | 10 | 20 | 10 | 30 | 30 | 70 | Summer barley observed (%) [9, 20]: 5%; Summer barley observed (%) [9, 21]: 8%
CCc1cc(C)cc(CC)c1C1=C(O)[C@H]2C[C@@]3(COC(C)(C)O3)C[C@H]2C1=O [I-a-1] | 50 | 60 | 100 | 90 | – | – | – | – | – | – | – | – | 80 | – | – | – | – | – | – | pest or weed control at 80 g/ha ([5]; Echinochloa crus-galli, 504 h, read-out: herbicidal effect against ECHCG (Echinochloa crus-galli)): 100%; pest or weed control at 80 g/ha ([7]; Lolium multiflorum, 504 h, read-out: herbicidal effect against LOLMU (Lolium multiflorum)): 100%; pest or weed control at 80 g/ha ([8]; Alopecurus myosuroides, 504 h, read-out: herbicidal effect against ALOMY (Alopecurus myosuroides)): 100%; pest or weed control at 80 g/ha ([11]; 504 h, Avena fatua, read-out: herbicidal effect against AVEFA (Avena fatua)): 90%; Penetration after 24 h ([13]; a.i. (0.2 g/l) + AS = ammonium sulphate (0.7 g/l)): 4%; Penetration after 24 h ([13]; a.i. (0.2 g/l) + Edenor ME SU 500 EW (2 g/l) + AS (0.7 g/l)): 13%; Penetration after 24 h ([13]; a.i. (0.2 g/l) + Edenor Me SU 500 EW (2 g/l)): 11.5%; Penetration after 24 h ([13]; a.i. (0.2 g/l) alone, average of eight to ten measurements): 2.5%
